Experimental data taken from patent US20230398101A1, “Co-agents as Therapy Against Anaerobic Pathogens” (priority 2022, published 2023).

Legend:
Assay in all cases: Aerobic agar-dilution AST of facultative anaerobes (MIC, checkerboard FIC)
Assay type in all cases: cell-based
Staphylococcus aureus = test system: Staphylococcus aureus; parameters: MIC (Table 10C, head prints neither MIC nor unit): unit not given beside the values; settings: for MIC (Table 10C, head prints neither MIC nor unit): strain (MR) 920516, aerobic; for MIC: Staphylococcus aureus
Pseudomonas aeruginosa = settings: Pseudomonas aeruginosa, Pseudomonas aeruginosa 945748; read-out: MIC
Acinetobacter baumannii = Acinetobacter baumannii 919899, read-out: MIC
Enterococcus faecalis = settings: Enterococcus faecalis

## CC(C)c1ccc(Cn2ccc3c4c(N)nc(NC5CC5)nc4ccc32)cc1 [Q]
Staphylococcus aureus
  MIC (Table 10C, head prints neither MIC nor unit): 32

## Cc1cc(NS(=O)(=O)c2ccc(N)cc2)no1 [S, sulfamethoxazole]
Staphylococcus aureus
  MIC (Table 10C, head prints neither MIC nor unit): >608

## C[C@@H](O)[C@H]1C(=O)N2C(C(=O)O)=C(S[C@@H]3CN[C@H](C(=O)N(C)C)C3)[C@H](C)[C@H]12 [meropenem]
Pseudomonas aeruginosa
  MIC: 8 µg/mL
Acinetobacter baumannii
  MIC: > 64 µg/mL

## CCCCCCCCCCNCCN[C@@]1(C)C[C@H](O[C@H]2[C@H](Oc3c4cc5cc3Oc3ccc(cc3Cl)[C@@H](O)[C@@H](NC(=O)[C@@H](CC(C)C)NC)C(=O)N[C@@H](CC(N)=O)C(=O)N[C@H]5C(=O)N[C@H]3C(=O)N[C@H](C(=O)N[C@H](C(=O)O)c5cc(O)c(CNCP(=O)(O)O)c(O)c5-c5cc3ccc5O)[C@H](O)c3ccc(c(Cl)c3)O4)O[C@H](CO)[C@@H](O)[C@@H]2O)O[C@@H](C)[C@H]1O [telavancin]
Staphylococcus aureus
  MIC: 0.25 µg/mL
Staphylococcus aureus; ATCC33591
  MIC: 0.125 µg/mL

## CN[C@H](CC(C)C)C(=O)N[C@H]1C(=O)N[C@@H](CC(N)=O)C(=O)N[C@H]2C(=O)N[C@H]3C(=O)N[C@H](C(=O)N[C@H](C(=O)O)c4cc(O)cc(O)c4-c4cc3ccc4O)[C@H](O)c3ccc(c(Cl)c3)Oc3cc2cc(c3O[C@@H]2O[C@H](CO)[C@@H](O)[C@H](O)[C@H]2O[C@H]2C[C@](C)(N)[C@H](O)[C@H](C)O2)Oc2ccc(cc2Cl)[C@H]1O [vancomycin]
Enterococcus faecalis
  MIC: 1 µg/mL
Enterococcus faecalis; ATCC51559
  MIC: > 32 µg/mL
Staphylococcus aureus
  MIC: 1 µg/mL
Staphylococcus aureus; ATCC33591
  MIC: 2 µg/mL
